Results as given in patent US20070026431A1, “Modulation of MAPK-mediated phosphorylation and/or FBXW8-mediated ubiquitinylation of cyclin D1 in modulation of cellular proliferation” (priority 2005, published 2007).
Like-named read-outs stand apart in the source and are kept apart here. Peptide text beside a SMILES is read from it. * marks the point of attachment. Cbz = O=C(OCc1ccccc1)*

What was measured:
cyclin D1 protein [1] = experiment: Western blot of cyclin D1 with or without MG132 during cell cycle progression, NIH 3T3 cells; format: cell-based, mouse
Method: HCT 116 and NIH 3T3 cells were treated with the proteasome inhibitor MG132 at each time point during cell cycle progression (FIG. 3, Panel C).

[2] = test system: polyubiquitinated cyclin D1; experiment: Polyubiquitination of cyclin D1, IP-immunoblot in HA-ubiquitin transfected S phase HCT 116 cells; format: cell-based, human
Method: FIG. 3 illustrates that cyclin D1 is destabilized during S phase through the ubiquitin-proteasome pathway in cancers. Panels A and B: Pulse-chase analysis of cyclin D1 protein in NIH 3T3 (Panel A) and HCT 116 (Panel B) cells. When most of the populations were in G1 phase (9 hrs for NIH3T3 and 6 hrs for HCT 116) or in S phase (21 hrs for NIH3T3 and 15 hrs for HCT 116), cells were released from quiescence and then labeled with 35^S-methionine for 1 hour. Subsequently these cells were chased with cold methionine for the indicated times and then lysed. Cyclin D1 was immunoprecipitated and then analyzed with SDS-PAGE. Autoradiography was performed. Levels of metabolically labeled-cyclin D1 were estimated by quantitative scanning using the Quantity One (Bio-Rad) software and blotted on the graph to determine the half-life of cyclin D1. Panel C: illustrates that the turnover of cyclin D1 protein is mediated by the ubiquitin-proteasome pathway. […]
To confirm that the destabilization of cyclin D1 in the S phase is related to polyubiquitination, HCT 116 colon cancer cells were transfected with (lanes 1-3) or without (lane 4) HA-tagged ubiquitin cDNA and then synchronized to the S phase (FIG. 3, Panel D). […] A group of slower migrating bands was detected by the HA antibody exclusively in the anti-cyclin D1 immunoprecipitates in the presence of ubiquitin (lane 2 and 3). […]

cyclin D1 protein [3] = experiment: Western blot of cyclin D1 with or without MG132 during cell cycle progression, WI-38 cells; format: cell-based, human; conditions: MG132 2 hours
Method: (§1) FIG. 3 illustrates that cyclin D1 is destabilized during S phase through the ubiquitin-proteasome pathway in cancers. Panels A and B: Pulse-chase analysis of cyclin D1 protein in NIH 3T3 (Panel A) and HCT 116 (Panel B) cells. When most of the populations were in G1 phase (9 hrs for NIH3T3 and 6 hrs for HCT 116) or in S phase (21 hrs for NIH3T3 and 15 hrs for HCT 116), cells were released from quiescence and then labeled with 35^S-methionine for 1 hour. Subsequently these cells were chased with cold methionine for the indicated times and then lysed. Cyclin D1 was immunoprecipitated and then analyzed with SDS-PAGE. Autoradiography was performed. Levels of metabolically labeled-cyclin D1 were estimated by quantitative scanning using the Quantity One (Bio-Rad) software and blotted on the graph to determine the half-life of cyclin D1. Panel C: illustrates that the turnover of cyclin D1 protein is mediated by the ubiquitin-proteasome pathway. […] Western blot was performed with cyclin D1 and p-actin antibodies. Panel D: Polyubiquitination of cyclin D1 protein. HCT 116 colon cancer cells were transfected with (lane 1-3) or without (lane 4) ubiquitin cDNA and then synchronized to S phase through the sequential manipulation of serum starvation and stimulation. Cells were treated with (lane 3 and 4) or without (lane 1 and 2) 25 μM MG132 for an hour. […]

cyclin D1 protein [4] = experiment: Western blot of cyclin D1 with or without MG132 during cell cycle progression, HCT 116 cells; format: cell-based, human; conditions: MG132 2 hours
Method: as §1

[5] = test system: cyclin D1 protein (Thr286 phosphorylation); experiment: Western blot of cyclin D1 and p-Thr286 cyclin D1 in HA-CD1 SW480 cells treated with kinase inhibitors; format: cell-based, human
Method: Immunoblot analysis was performed. […] Asterisks indicate endogenous cyclin D1 expression. Panel B: Western blot analysis with fractionated nuclear proteins. […] Cell-cycle distribution was shown as bar graphs. Nuclear proteins were fractionated at indicated time points. […] Levels of total and phosphorylated cyclin D1 were determined.
(§2) Immunoblotting Analysis. […] SDS-PAGE was described previously (Tetsu and McCormick, 2003).
To identify the kinase responsible for cyclin D1 Thr286 phosphorylation, small molecule inhibitors of GSK3β, CDK4, and MEK were used to determine whether they were able to alter the phosphorylation and stability of ectopically expressed WT cyclin D1 protein in cultured cells (FIG. 5, Panels C and D). Ectopically expressed WT cyclin D1 protein was used to assess the stability of cyclin D1 protein. The endogenous expression was not assessed because transcription of cyclin D1 is regulated by the Ras/MAPK signaling. Therefore, endogenous expression of cyclin D1 is unable to be detected following inhibition of MAPK activities through the MEK/MAPK inhibitors or serum starvation (Tetsu et al., 2003. Cancer Cell. 3, 233-45).

MEK/MAPK [6] = test system: MEK/MAPK
Method: Immunoblot analysis was performed. […] Panels C and D: HA-WT CD1 (D) or Panel E: HA-CD1 T286A ectopically expressing SW480 cells were treated with highly specific small molecule inhibitors for GSK3β CDK4 and MEK. LiCl and BIO, AG12275, and U0126 were used for GSK, CDK4 and MEK/MAPK inhibitions respectively. Twenty-four hours after the treatment, cells were harvested and western-blot analyses were performed with a cyclin D1 and the p-Thr286 cyclin D1 antibodies. The phosphorylated cyclin D1 expression was magnified and normalized to its total (phosphorylated plus non-phosphorylated protein) expression and shown in the graphs in Panel C. Inhibition of the kinase activities by drugs was assessed using phosphorylation-specific antibodies for GSK3α/β, Rb and ERK1/2 on the same membrane respectively. […] HA-WT CD1 SW480 cells were treated with combining U0126 with LiCl.
After 24 hours of treatment with these highly specific small molecule inhibitors, expression levels of cyclin D1 and its phosphorylated form were analyzed (FIG. 5, Panel C). Levels of phosphorylated cyclin D1 were estimated by quantitative scanning with Quantity One (Bio Rad) software and were normalized to levels of total cyclin D1 protein (FIG. 5, Panel C bottom graphs).
Cells were next treated with the MEK inhibitor U0126.

[7] = test system: HCT 116 colon cancer cells; experiment: Flow-cytometric cell cycle analysis, HCT 116 cells; format: cell-based, human; conditions: U0126 30 minutes
Method: Cell cycle analysis was carried out as described previously (Tetsu et al. (1999) Nature 398: 422-6; Tetsu et al. (2003) Cancer Cell 3: 233-45.

MEK/MAPK [8] = experiment: Western blot of phosphorylated ERK (pERK) in HCT 116 cells; format: cell-based, human
Method: (§3) FIG. 11 illustrates that ERK/MAPK is identified as the major kinase that is responsible for the stability of cyclin D1 protein. Panels A-F: Pulse-chase analysis of cyclin D1 protein in HCT 116 cells after exposure to the MEK inhibitor U0126 (A-C) or the GSK3 inhibitor BIO (D-F). Exponentially growing HCT 116 cells were treated with either DMSO or 10 μM of U0126 (A-C) for 30 minutes, or DMSO or 5 μM of BIO (D-F) for 24 hours. Panels A and D: Cells were pulse-labeled with ^35S-methionine for 1 hour. Subsequently these cells were chased with cold methionine for the indicated times, and then lysed respectively. Cyclin D1 was immunoprecipitated and then analyzed with SDS-PAGE. Autoradiography was performed. Levels of metabolically labeled-cyclin D1 were estimated by quantitative scanning using the Quantity One (Bio-Rad) software and blotted on the graph to determine the half-life of cyclin D1. Panels B and E: Western blot analysis. The membrane was blotted with a cyclin D1 Thr286 phosphorylation specific (pThr286), total cyclin D1, a phosphorylation specific ERK, and total ERK antibodies (B), or a pThr286, cyclin D1, a GSKα/β phosphorylation specific, and GSK3β antibodies (E). Panels C and F: Cell cycle distributions were shown. […]

cyclin D1 protein [9] = conditions: HA-WT cyclin D1 SW480 cells; U0126 24 hours, then CHX, chased 3 hours
Method: FIG. 8 illustrates that MAPK regulates stability and relocalization of cyclin D1 protein. Panels A and B: Half-life analysis of HA-CD1 WT after exposure to U0126. Panel A: Exponentially growing HA-WT cyclin D1 SW480 cells were exposed to U0126 for 24 hours and subsequently treated with CHX and chased for 3 hours. Cells were harvested at different times and protein blot was performed (upper panel). Cyclin D1 expression was quantified and the half-life was calculated respectively. Panel B: Western blot analysis.
Immunoblotting Analysis. […] NE-PER nuclear and cytoplasmic extraction reagents (Pierce) were used for nuclear and cytoplasmic fractionation. […] Western blots were developed by enhanced chemiluminescence (Amersham or Upstate). […] Intensities of bands were quantified using Gel Doc 600 and Quantity One software (BioRad).
Exponentially growing HA-WT cyclin D1 SW480 cells were exposed to U0126 for 24 hours and subsequently treated with CHX and chased for 3 hours. […] Cyclin D1 expression was quantified and the half-life was calculated (FIG. 8, Panel A bottom graph).

[10] = test system: cyclin D1 / E3 ligase FBXW8; conditions: HCT 116 transfected with FBXW8, cyclin D1 and CDK4; 10 μM U0126 30 minutes
Method: Panel D: Immunoprecipitated-immunoblotting analysis. […] Panels D and E: Exponentially growing HCT 116 colon cancer cells were transiently transfected with Flag epitope-tagged FBXW8 DNA plasmid together with HA-tagged cyclin D1 and CDK4 expression vectors. Twenty-four hours later cells were treated with DMSO (−) or 10 μM of U0126 (+) for 30 minutes and then harvested. Cell lysates were immunoprecipitated with either a Flag (FBXW8) antibody or a control IgG and immunoblotted with cyclin D1, pThr286, and Flag (FBXW8) antibodies (left panel). Western blot for input controls (lysate) were provided (right panel).
Immunoprecipitation and Immunoblotting Analysis. […] Following antibodies were used for immunoprecipitation; Flag (M2 Agarose-conjugated, Sigma), cyclin D1 (A-12, Agarose-conjugated, Santa Cruz), CDK4 (H-303 or C-22 Agarose-conjugated, Santa Cruz), CDK6 (C-21, Santa Cruz), FLA (M2 Agarose-conjugated, Sigma), and HA (Y-11 Agarose-conjugated, Santa Cruz). Immunoblotting was performed using antibodies described above.
FBXW8 DNA plasmid together with cyclin D1 and CDK4 expression vectors were transiently transfected in exponentially growing HCT 116 colon cancer cells. After 24 hours, cells were treated with U0126 to inhibit MEK/MAPK signaling for 30 minutes. Subsequently cells were collected and an immunoprecipitated-immunoblotting analysis was performed (FIG. 12, Panels D and E).

[11] = test system: cyclin D1 protein (Thr286 phosphorylation); experiment: Western blot of total cyclin D1 and pThr286 in HCT 116 cells after U0126 or GSK3 inhibitor; format: cell-based, human
Method: FIG. 11 illustrates that ERK/MAPK is identified as the major kinase that is responsible for the stability of cyclin D1 protein. Panels A-F: Pulse-chase analysis of cyclin D1 protein in HCT 116 cells after exposure to the MEK inhibitor U0126 (A-C) or the GSK3 inhibitor BIO (D-F). Exponentially growing HCT 116 cells were treated with either DMSO or 10 μM of U0126 (A-C) for 30 minutes, or DMSO or 5 μM of BIO (D-F) for 24 hours. Panels A and D: Cells were pulse-labeled with ^35S-methionine for 1 hour. Subsequently these cells were chased with cold methionine for the indicated times, and then lysed respectively. Cyclin D1 was immunoprecipitated and then analyzed with SDS-PAGE. Autoradiography was performed. Levels of metabolically labeled-cyclin D1 were estimated by quantitative scanning using the Quantity One (Bio-Rad) software and blotted on the graph to determine the half-life of cyclin D1. Panels B and E: Western blot analysis. The membrane was blotted with a cyclin D1 Thr286 phosphorylation specific (pThr286), total cyclin D1, a phosphorylation specific ERK, and total ERK antibodies (B), or a pThr286, cyclin D1, a GSKα/β phosphorylation specific, and GSK3β antibodies (E). Panels C and F: Cell cycle distributions were shown. Panel G: Western blot analysis following transfection of various forms of HA-tagged cyclin D1 expression vectors in both NIH 3T3 mouse fibroblast (left) and HCT 116 colon cancer (right) cells. In lane 5 and 10, cells were treated with 5 μM of BIO for further 24 hours following transfection of the ΔD CD1 mutant.
as §2
To determine the contribution of ERK/MAPK to the stability of cyclin D1 in cancer cells, MAPK activity was inhibited with the MEK inhibitor U0126 (Favata et al., 1998. J Bio Chem. 273, 18623-32; Davies et al., 2000. Biochem J. 351, 95-105). Exponentially growing HCT 116 colon cancer cells were treated with U0126 for 30 minutes (FIG. 11, Panels A-C).
In contrast, no effect on phosphorylation status and stability of cyclin D1 protein through inhibition of GSK3α/β ([…], Panels D-F) were detected. […] Cycling HCT 116 colon cancer cells were treated with BIO for 24 hours (FIG. 11, Panels D-F). A phosphorylation specific antibody to GSK3α and β was used to measure their endogenous activities because phosphorylations of GSK3α at Tyr279 and GSK3β at Tyr216 are intramolecular autophosphorylation events in the cells. Thus, phosphorylation status reflects their kinase activities (Cole et al., 2004. Biochem J. 377, 249-55).

cyclin D1 protein [12] = experiment: Pulse-chase analysis of cyclin D1 protein in HCT 116 cells; format: cell-based, human; conditions: exponentially growing HCT 116; 10 μM U0126 30 minutes
Method: as §3, with “D1.” for “D1. Panels B and E: Western blot analysis. The membrane was blotted with a cyclin D1 Thr286 phosphorylation specific (pThr286), total cyclin D1, a phosphorylation specific ERK, and total ERK antibodies (B), or a pThr286, cyclin D1, a GSKα/β phosphorylation specific, and GSK3β antibodies (E). Panels C and F: Cell cycle distributions were shown.”
FIG. 18 illustrates that knockdown of FBXW8, or its partner CUL1 or CUL7 expression through siRNA stabilizes cyclin D1 expression in HCT 116 colon cancer cells. […] Cyclin D1 was immunoprecipitated and then analyzed with SDS-PAGE. Levels of metabolically labeled-cyclin D1 were estimated by quantitative scanning using the Quantity One software (Bio-Rad) and blotted on the graph to determine the half-life of cyclin D1 (D).
Pulse-Chase Analysis. […] Cyclin D1 was immunoprecipitated and then analyzed with SDS-PAGE. […]

MAPK (ERK1/2) = experiment: Western blot after 4-HT treatment, ΔB-Raf:ER^TAM NIH 3T3 cells; format: cell-based, mouse; conditions: 10 nM 4-HT
Method: (§4) Panel B: Western blot analysis. […] Panel C: Western blot analysis after 4-HT treatment. […] A half-life of cyclin D1 protein was calculated.
(§5) In order to investigate whether this was due to accelerated turnover of the cyclin D1 protein, the half-life of endogenous expression of cyclin D1 protein (FIG. 8, Panel E) was assessed.

cyclin D1 protein [13] = experiment: Cyclin D1 expression and half-life after 4-HT in ΔB-Raf:ER^TAM NIH 3T3 cells; format: cell-based, mouse
Method: as §4, §5

GSK3α/β = experiment: Phosphorylation-specific blot for GSK3α/β, SW480 cells; format: cell-based, human; conditions: 24 hours of treatment
[14] = HA-WT CD1 SW480 cells, U0126 24 hours
[15] = HCT 116 transfected with FBXW8, cyclin D1 and CDK4, 10 μM U0126 30 minutes
[16] = exponentially growing HCT 116, U0126 30 minutes

## CC(C)C[C@@H](C=O)NC(=O)[C@H](CC(C)C)NC(=O)[C@H](CC(C)C)NC(=O)OCc1ccccc1 [MG132] (Cbz-Leu-Leu-Leu-aldehyde)
Cyclin D1 protein [1]
  cyclin D1 protein accumulation, G1 versus S phase: no difference between the G1 and S phase
[2]; 25 μM MG132 for an hour
  reduced mobility (polyubiquitinated cyclin D1) bands: enhanced further
Cyclin D1 protein [3]
  cyclin D1 protein accumulation, G1 versus S phase: no remarkable different
Cyclin D1 protein [4]
  cyclin D1 protein accumulation during G1 phase: no significant accumulation
  cyclin D1 protein accumulation in S phase: accumulated significantly

## N#CC(=C(/N)Sc1ccccc1N)/C(C#N)=C(\N)Sc1ccccc1N [U0126]
[5]; HA-CD1 T286A SW480 cells, U0126
  ectopic expression of cyclin D1 T286A protein: did not accumulate
[5]; [14]
  cyclin D1 expression (ectopic HA-WT): dramatic induction
  ratio of phosphorylated cyclin D1 at Thr286 to total cyclin D1: significant reduction
MEK/MAPK [6]; HA-WT cyclin D1 SW480 cells, U0126 24 hours (FIG. 8 Panel B)
  MAPK activity: completely inhibited
MEK/MAPK [6]; SW480 cells, 24 hours after exposure
  phosphorylated ERK: disappeared
[7]
  cell cycle profile: without affecting
MEK/MAPK [8]; [15]
  MAPK activities (pERK): significantly inhibited
MEK/MAPK [8]; [16]
  phosphorylated form of ERK (pERK): significantly depleted
Cyclin D1 protein [9]
  half-life of cyclin D1 protein (T1/2): 60.3 min
[10]
  association of cyclin D1 with the E3 ligase FBXW8: significant decrease
[11]; [15]
  phosphorylation status of cyclin D1 at Thr286 (pThr286): significantly inhibited
[11]; [16]
  level of total cyclin D1: not changed
  phosphorylation of cyclin D1 at Thr286 (pThr286): dramatic reduction
Cyclin D1 protein [12]
  half-life of cyclin D1 protein: 54.6 min

## 4-hydroxy-tamoxifen [4-HT]
MAPK (ERK1/2)
  MAPK activation: MAPK activation
Cyclin D1 protein [13]; exponentially growing cells, 10 nM 4-HT, then CHX, chased 3 hours
  half-life of cyclin D1 protein (T1/2): 20.6 min
Cyclin D1 protein [13]; serum-stimulated from quiescence in the presence of 4-HT
  cyclin D1 expression in S phase: dramatic reduction

## [Cl-].[Li+] [LiCl]
[5]; HA-WT CD1 SW480 cells, 24 hours of treatment
  total cyclin D1 expression and its phosphorylated protein: no significant difference
[5]; HA-WT cyclin D1 SW480 cells, U0126 combined with LiCl
  effect of adding LiCl to U0126 on cyclin D1: little enhancement
GSK3α/β
  phosphorylated forms of GSK3α/β: disappeared

## CCC(=C/[C@H](C)C/C=C/C(C)=C/[C@@H](C)C(=O)[C@@H](C)[C@H](O)[C@@H](C)C/C(C)=C/C(=O)O)/C=C/[C@@H]1OC(=O)C=C[C@@H]1C [Leptomycin B]
[2]; LMB 3 hours, then MG132 for an hour, nuclear fraction
  polyubiquitinated cyclin D1 bands in the nucleus: did not enhance these bands significantly
